Experimental data as given in patent publication US20180072997A1, “INHIBITORS OF HUMAN IMMUNODEFICIENCY VIRUS REPLICATION” (ViiV HEATHCARE UK (NO.5) LIMITED, priority 2015, published 2018).

What was measured:
[1] = Compound cytotoxicity, XTT-based colorimetric assay; type: cell-based; settings: human, uninfected MT2 cells, day 4, XTT
Outline: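 Run under the antiviral-assay protocol but without virus. Viability was read on day 4 and CC50 values were derived from the readout.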

[2] = test system: recombinant NL4-3 virus (Renilla luciferase in nef) in MT-2 cells; assay: whole plant or invertebrate; type: cell-based, HIV; settings: Renilla, NL43, MT-2 cells infected for 4-5 days with recombinant NL4-3 Renilla luciferase virus; luciferase activity
Outline: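 MT-2 cells infected for 4-5 days with NL4-3 reporter virus (Renilla luciferase replacing part of nef, produced by transfection of 293T cells) in the presence of serial compound dilutions. Antiviral activity quantified by luciferase activity read with a live-cell substrate.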

Row | Structure (SMILES) | CC50 at 4 days [1] [µM] | EC50 [2] [µM]
1 | C=CCN(C(=O)[C@H](Cc1cc(F)cc(F)c1)NS(=O)(=O)CCCS(=O)(=O)N[C@@H](Cc1cc(F)cc(F)c1)C(=O)N(CC=C)c1ccc(OC)cc1)c1ccc(OC)cc1 [Example 164] | ≥ 100 | 2.64
2 | CN(C(=O)[C@H](Cc1cc(F)cc(F)c1)NC(=O)NS(=O)(=O)N[C@@H](Cc1cc(F)cc(F)c1)C(=O)N(C)c1ccc(Cl)cc1)c1ccc(Cl)cc1 [Example 165] | 30.3 | 0.04
3 | COc1ccc(-n2ccnc2C(Cc2ccccc2)NC(=O)CN2c3ccccc3N(CC(=O)N[C@@H](Cc3ccccc3)c3nccn3-c3ccc(OC)cc3)S2(=O)=O)cc1 (some centres unmarked) [Example 166] | ≥ 100 | 6.7
4 | CN(C(=O)[C@H](Cc1ccccc1)NC(=O)NS(=O)(=O)N[C@@H](Cc1ccccc1)C(=O)N(C)c1ccc(C(C)(C)C)cc1)c1ccc(C(C)(C)C)cc1 [Example 167] | 26.5 | 0.27
5 | CN(C(=O)[C@H](Cc1cc(F)cc(F)c1)NC(=O)NS(=O)(=O)N[C@@H](Cc1cc(F)cc(F)c1)C(=O)N(C)c1ccc(C(C)(C)C)cc1)c1ccc(C(C)(C)C)cc1 [Example 168] | 16.2 | 0.15
6 | CN(C(=O)[C@H](Cc1ccccc1)NC(=O)c1ccc(F)c(C(=O)N[C@@H](Cc2ccccc2)C(=O)N(C)c2ccc3scnc3c2)c1)c1ccc2scnc2c1 [Example 169] | 4.5 | 0.06
7 | C=CCN(C(=O)[C@H](Cc1cc(F)cc(F)c1)NC(=O)CCC(=O)N[C@@H](Cc1cc(F)cc(F)c1)C(=O)N(CC=C)c1ccc(OC)cc1)c1ccc(OC)cc1 [Example 170] | 28.4 | 7.66
8 | C=CCN(C(=O)[C@H](Cc1cc(F)cc(F)c1)NC(=O)CC(C)(C)CC(=O)N[C@@H](Cc1cc(F)cc(F)c1)C(=O)N(CC=C)c1ccc(OC)cc1)c1ccc(OC)cc1 [Example 171] | ≥ 100 | 100
9 | Cc1ccc(N(C)C(=O)[C@H](Cc2cc(F)cc(F)c2)NC(=O)NS(=O)(=O)N[C@@H](Cc2cc(F)cc(F)c2)C(=O)N(C)c2ccc(C)nc2)cn1 [Example 172] | ≥ 100 | 0.58
10 | CN(C(=O)[C@H](Cc1cc(F)cc(F)c1)NC(=O)NS(=O)(=O)N[C@@H](Cc1cc(F)cc(F)c1)C(=O)N(C)c1ccc(=O)n(C)c1)c1ccc(=O)n(C)c1 [Example 174] | ≥ 100 | 100
11 | CN(C(=O)[C@H](Cc1cc(F)cc(F)c1)NC(=O)NS(=O)(=O)N[C@@H](Cc1cc(F)cc(F)c1)C(=O)N(C)c1ccc2sc(=O)[nH]c2c1)c1ccc2sc(=O)[nH]c2c1 [Example 175] | ≥ 100 | 0.45
12 | COc1ccc(N(C)C(=O)[C@H](Cc2cc(F)cc(F)c2)NC(=O)NS(=O)(=O)N[C@@H](Cc2cc(F)cc(F)c2)C(=O)N(C)c2ccc(OC)nc2)cn1 [Example 176] | ≥ 100 | 0.04
13 | CN(C(=O)[C@H](Cc1cc(F)cc(F)c1)NC(=O)NS(=O)(=O)N[C@@H](Cc1cc(F)cc(F)c1)C(=O)N(C)c1ccc2snnc2c1)c1ccc2snnc2c1 [Example 177] | 88 | 0.27
14 | CN(C(=O)[C@H](Cc1cc(F)cc(F)c1)NC(=O)CN1c2ccccc2N(CC(=O)N[C@@H](Cc2cc(F)cc(F)c2)C(=O)N(C)c2ccc3snnc3c2)S1(=O)=O)c1ccc2snnc2c1 [Example 178] | ≥ 100 | 0.02
15 | CN(C(=O)[C@H](Cc1cc(F)cc(F)c1)NC(=O)c1ccc(F)c(C(=O)N[C@@H](Cc2cc(F)cc(F)c2)C(=O)N(C)c2ccc3snnc3c2)c1)c1ccc2snnc2c1 [Example 179] | ≥ 100 | 0.34
16 | CCc1ccc(N(C)C(=O)[C@H](Cc2cc(F)cc(F)c2)NC(=O)NS(=O)(=O)N[C@@H](Cc2cc(F)cc(F)c2)C(=O)N(C)c2ccc(CC)nc2)cn1 [Example 180] | 80.1 | 0.03
17 | CN(C(=O)[C@H](Cc1cc(F)cc(F)c1)NC(=O)NS(=O)(=O)N[C@@H](Cc1cc(F)cc(F)c1)C(=O)N(C)c1ccc(C2CC2)nc1)c1ccc(C2CC2)nc1 [Example 181] | 85.8 | 0.02
18 | CCCc1ccc(N(C)C(=O)[C@H](Cc2cc(F)cc(F)c2)NC(=O)NS(=O)(=O)N[C@@H](Cc2cc(F)cc(F)c2)C(=O)N(C)c2ccc(CCC)cc2)cc1 [Example 182B] | 13.4 | 0.02
19 | Cc1ccc(N(C)C(=O)[C@H](Cc2cc(F)cc(F)c2)NC(=O)NS(=O)(=O)N[C@@H](Cc2cc(F)cc(F)c2)C(=O)N(C)c2ccc(C)cn2)nc1 [Example 182] | 97.9 | 0.4
20 | CN(C(=O)[C@H](Cc1cc(F)cc(F)c1)NC(=O)NS(=O)(=O)N[C@@H](Cc1cc(F)cc(F)c1)C(=O)N(C)c1ccc(N2CCOCC2)cc1)c1ccc(N2CCOCC2)cc1 [Example 183] | 78.9 | 0.09

Row | Structure (SMILES) | CC50 at 4 days [1] [µM] | EC50 [2] [µM]
21 | Cc1ccc(N(C)C(=O)[C@H](Cc2cc(F)cc(F)c2)NC(=O)c2ccc(F)c(C(=O)N[C@@H](Cc3cc(F)cc(F)c3)C(=O)N(C)c3ccc(C)nc3)c2)cn1 [Example 184] | 11.1 | 0.19
22 | CN(C(=O)[C@H](Cc1cc(F)cc(F)c1)NC(=O)NS(=O)(=O)N[C@@H](Cc1cc(F)cc(F)c1)C(=O)N(C)c1ccc2c(cnn2C)c1)c1ccc2c(cnn2C)c1 [Example 185] | 96 | 0.08
23 | CN(C(=O)[C@H](Cc1cc(F)cc(F)c1)NC(=O)NS(=O)(=O)N[C@@H](Cc1cc(F)cc(F)c1)C(=O)N(C)c1ccc2c(c1)ncn2C)c1ccc2c(c1)ncn2C [Example 186] | ≥ 100 | 6.15
24 | C=CCN(C(=O)[C@H](Cc1cc(F)cc(F)c1)NS(=O)(=O)c1cccc(S(=O)(=O)N[C@@H](Cc2cc(F)cc(F)c2)C(=O)N(CC=C)c2ccc(OC)cc2)c1)c1ccc(OC)cc1 [Example 187] | ≥ 100 | 3.78
25 | CN(C(=O)[C@H](Cc1cc(F)cc(F)c1)NC(=O)NS(=O)(=O)N[C@@H](Cc1cc(F)cc(F)c1)C(=O)N(C)c1ccc(OC(F)(F)F)cc1)c1ccc(OC(F)(F)F)cc1 [Example 189] | 8.2 | 0.01
26 | C=CCN(C(=O)[C@H](Cc1cc(F)cc(F)c1)NC(=O)c1ccccc1C(=O)N[C@@H](Cc1cc(F)cc(F)c1)C(=O)N(CC=C)c1ccc(OC)cc1)c1ccc(OC)cc1 [Example 191] | ≥ 100 | 1.79
27 | C=CCN(C(=O)[C@H](Cc1cc(F)cc(F)c1)NC(=O)c1cc(F)c(F)cc1C(=O)N[C@@H](Cc1cc(F)cc(F)c1)C(=O)N(CC=C)c1ccc(OC)cc1)c1ccc(OC)cc1 [Example 192] | 58.2 | 7.24
28 | C=CCN(C(=O)[C@H](Cc1cc(F)cc(F)c1)NS(=O)(=O)c1ccccc1S(=O)(=O)N[C@@H](Cc1cc(F)cc(F)c1)C(=O)N(CC=C)c1ccc(OC)cc1)c1ccc(OC)cc1 [Example 193] | ≥ 33.3 | 1.74
29 | C=CCN(C(=O)[C@H](Cc1cc(F)cc(F)c1)NC(=O)NS(=O)(=O)N[C@@H](Cc1cc(F)cc(F)c1)C(=O)N(CC=C)c1ccc(OC)nc1)c1ccc(OC)nc1 [Example 194] | 41.9 | 0.58
30 | Cc1ccc(N(C)C(=O)[C@H](Cc2cc(F)cc(F)c2)NC(=O)CN2c3ccccc3N(CC(=O)N[C@@H](Cc3cc(F)cc(F)c3)C(=O)N(C)c3ccc(C)nc3)S2(=O)=O)cn1 [Example 195] | 54 | 0.02
31 | COc1ccc(N(C)C(=O)[C@H](Cc2cc(F)cc(F)c2)NC(=O)c2ccc(F)c(C(=O)N[C@@H](Cc3cc(F)cc(F)c3)C(=O)N(C)c3ccc(OC)nc3)c2)cn1 [Example 196] | ≥ 100 | 0.37
32 | COc1ccc(N(C)C(=O)[C@H](Cc2cc(F)cc(F)c2)NC(=O)CN2c3ccccc3N(CC(=O)N[C@@H](Cc3cc(F)cc(F)c3)C(=O)N(C)c3ccc(OC)nc3)S2(=O)=O)cn1 [Example 197] | 9.3 | 0.01
33 | CN(C(=O)[C@H](Cc1cc(F)cc(F)c1)NC(=O)NS(=O)(=O)N[C@@H](Cc1cc(F)cc(F)c1)C(=O)N(C)c1ccc(C2CC2)cc1)c1ccc(C2CC2)cc1 [Example 198] | 12.5 | 0.01
34 | CN(C(=O)[C@H](Cc1cc(F)cc(F)c1)NC(=O)NS(=O)(=O)N[C@@H](Cc1cc(F)cc(F)c1)C(=O)N(C)c1ccc(C(F)(F)F)nc1)c1ccc(C(F)(F)F)nc1 [Example 199] | 46.7 | 0.47
35 | COc1ccc(N(C)C(=O)[C@H](Cc2cc(F)cc(F)c2)NS(=O)(=O)CS(=O)(=O)N[C@@H](Cc2cc(F)cc(F)c2)C(=O)N(C)c2ccc(OC)cc2)cc1 [Example 201] | 12.5 | 0.48
36 | CN(C(=O)[C@H](Cc1cc(F)cc(F)c1)NS(=O)(=O)CS(=O)(=O)N[C@@H](Cc1cc(F)cc(F)c1)C(=O)N(C)c1ccc2scnc2c1)c1ccc2scnc2c1 [Example 202] | ≥ 100 | 0.08
37 | CN(C(=O)[C@H](Cc1cc(F)cc(F)c1)NC(=O)NS(=O)(=O)N[C@@H](Cc1cc(F)cc(F)c1)C(=O)N(C)c1ccc2nccnc2c1)c1ccc2nccnc2c1 [Example 203] | ≥ 100 | 30.4
38 | CCCN(C(=O)[C@H](Cc1cc(F)cc(F)c1)NC(=O)NS(=O)(=O)N[C@@H](Cc1cc(F)cc(F)c1)C(=O)N(CCC)c1ccc2nccnc2c1)c1ccc2nccnc2c1 [Example 204] | ≥ 33.3 | 15
39 | CCc1ncc(N(C)C(=O)[C@H](Cc2cc(F)cc(F)c2)NC(=O)c2ccc(F)c(C(=O)N[C@@H](Cc3cc(F)cc(F)c3)C(=O)N(C)c3cnc(CC)nc3)c2)cn1 [Example 206] | ≥ 33.3 | 14.5
40 | Cc1ncc(N(C)C(=O)[C@H](Cc2cc(F)cc(F)c2)NC(=O)NS(=O)(=O)N[C@@H](Cc2cc(F)cc(F)c2)C(=O)N(C)c2cnc(C)nc2)cn1 [Example 207] | ≥ 25 | 25
